Laboratory results as given in patent US8084649B2, “Herbicides” (Syngenta Crop Protection, inc., priority 2007, dated 2011).

Experiments:
Format in all cases: in vivo
Setaria faberi (SETFA) [1] = assay: Pre-emergence herbicidal activity, glasshouse pot test; conditions: Setaria faberi, 480 h, evaluated after 20 days, read-out: Pre-emergence activity, SETFA (100=total damage to plant; 0=no damage to plant); for pest or weed control at 500 g/ha: rate 500 g/ha
Outline: (§1)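 One day after sowing in sterilised soil, pots receive an aqueous spray made from the compound dissolved in acetone and a formulation of emulsifier, N-methylpyrrolidone, glycol ether and X-77 wetter. Injury is assessed 20 days later against untreated expectations, scored from 0 (no damage) to 100.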

Avena fatua (AVEFA) [2] = assay: as above; conditions: Avena fatua, 480 h, evaluated after 20 days, read-out: Pre-emergence activity, AVEFA (100=total damage to plant; 0=no damage to plant); for pest or weed control at 500 g/ha: rate 500 g/ha
Outline: as §1

[3] = test system: Alopecurus myosuroides (ALOMY); assay: as above; conditions: Alopecurus myosuroides, 480 h, evaluated after 20 days, read-out: Pre-emergence activity, ALOMY (100=total damage to plant; 0=no damage to plant); for pest or weed control at 500 g/ha: rate 500 g/ha
Outline: as §1

[4] = test system: Digitaria sanguinalis (DIGSA); assay: as above; conditions: Digitaria sanguinalis, 480 h, evaluated after 20 days, read-out: Pre-emergence activity, DIGSA (100=total damage to plant; 0=no damage to plant); for pest or weed control at 500 g/ha: rate 500 g/ha
Outline: as §1

[5] = test system: Echinochloa crus-galli (ECHCG); assay: as above; conditions: Echinochloa crus-galli, 480 h, evaluated after 20 days, read-out: Pre-emergence activity, ECHCG (100=total damage to plant; 0=no damage to plant); for pest or weed control at 500 g/ha: rate 500 g/ha
Outline: as §1

Lolium perenne (LOLPE) [6] = assay: as above; conditions: Lolium perenne, 480 h, evaluated after 20 days, read-out: Pre-emergence activity, LOLPE (100=total damage to plant; 0=no damage to plant); for pest or weed control at 500 g/ha: rate 500 g/ha
Outline: as §1

Setaria faberi (SETFA) [7] = assay: Post-emergence herbicidal activity, glasshouse pot test; conditions: Setaria faberi, evaluated after 14 or 15 days, read-out: Post-emergence activity, SETFA (100=total damage to plant; 0=no damage to plant); for pest or weed control at 500 g/ha: rate 500 g/ha
Outline: (§2)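 Post-emergence spray on 10-day-old potted plants (sterilised standard soil, controlled glasshouse conditions); spray solution from technical compound in acetone with Emulsogen EL, N-methylpyrrolidone, dipropylene glycol monomethyl ether and X-77. Rated 14–15 d later, 0 = no damage, 100 = total damage.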

Avena fatua (AVEFA) [8] = assay: as above; conditions: Avena fatua, evaluated after 14 or 15 days, read-out: Post-emergence activity, AVEFA (100=total damage to plant; 0=no damage to plant); for pest or weed control at 500 g/ha: rate 500 g/ha
Outline: as §2

[9] = test system: Alopecurus myosuroides (ALOMY); assay: as above; conditions: Alopecurus myosuroides, evaluated after 14 or 15 days, read-out: Post-emergence activity, ALOMY (100=total damage to plant; 0=no damage to plant); for pest or weed control at 500 g/ha: rate 500 g/ha
Outline: as §2

[10] = test system: Digitaria sanguinalis (DIGSA); assay: as above; conditions: Digitaria sanguinalis, evaluated after 14 or 15 days, read-out: Post-emergence activity, DIGSA (100=total damage to plant; 0=no damage to plant); for pest or weed control at 500 g/ha: rate 500 g/ha
Outline: as §2

[11] = test system: Echinochloa crus-galli (ECHCG); assay: as above; conditions: Echinochloa crus-galli, evaluated after 14 or 15 days, read-out: Post-emergence activity, ECHCG (100=total damage to plant; 0=no damage to plant); for pest or weed control at 500 g/ha: rate 500 g/ha
Outline: as §2

Lolium perenne (LOLPE) [12] = assay: as above; conditions: Lolium perenne, evaluated after 14 or 15 days, read-out: Post-emergence activity, LOLPE (100=total damage to plant; 0=no damage to plant); for pest or weed control at 500 g/ha: rate 500 g/ha
Outline: as §2

SMILES	pest or weed control at 500 g/ha (Setaria faberi (SETFA) [1]) [%]	pest or weed control at 500 g/ha (Avena fatua (AVEFA) [2]) [%]	pest or weed control at 500 g/ha [3] [%]	pest or weed control at 500 g/ha [4] [%]	pest or weed control at 500 g/ha [5] [%]	pest or weed control at 500 g/ha (Lolium perenne (LOLPE) [6]) [%]	pest or weed control at 500 g/ha (Setaria faberi (SETFA) [7]) [%]	pest or weed control at 500 g/ha (Avena fatua (AVEFA) [8]) [%]	pest or weed control at 500 g/ha [9] [%]	pest or weed control at 500 g/ha [10] [%]	pest or weed control at 500 g/ha [11] [%]	pest or weed control at 500 g/ha (Lolium perenne (LOLPE) [12]) [%]	other results
CCc1cc(C)cc(CC)c1C1=C(O)CC(C(C)(C)S(C)(=O)=O)CC1=O (stereo not drawn) [Compound T19]													pest or weed control at 250 g/ha (Setaria faberi (SETFA) [1]; rate 250 g/ha): 50%; pest or weed control at 250 g/ha (Avena fatua (AVEFA) [2]; rate 250 g/ha): 70%; pest or weed control at 250 g/ha ([3]; rate 250 g/ha): 70%; pest or weed control at 250 g/ha ([4]; rate 250 g/ha): 90%; pest or weed control at 250 g/ha ([5]; rate 250 g/ha): 80%; pest or weed control at 250 g/ha (Lolium perenne (LOLPE) [6]; rate 250 g/ha): 80%; pest or weed control at 250 g/ha (Setaria faberi (SETFA) [7]; rate 250 g/ha): 80%; pest or weed control at 250 g/ha (Avena fatua (AVEFA) [8]; rate 250 g/ha): 80%; pest or weed control at 250 g/ha ([9]; rate 250 g/ha): 80%; pest or weed control at 250 g/ha ([10]; rate 250 g/ha): 80%; pest or weed control at 250 g/ha ([11]; rate 250 g/ha): 80%; pest or weed control at 250 g/ha (Lolium perenne (LOLPE) [12]; rate 250 g/ha): 80%
CCc1cc(C)cc(CC)c1C1=C(O)CC(C(C)(C)SC)CC1=O (stereo not drawn) [Compound T20]	100	100	100	100	100	100	100	100	100	100	100	100	
CCc1cc(C)cc(CC)c1C1=C(O)CC(C2(SC)CC2)CC1=O (stereo not drawn) [Compound T21]	100	100	100	100	100	100	90	100	90	100	90	90	
CCc1cc(C)cc(CC)c1C1=C(O)CC2(CCOCC2)CC1=O [Compound T22, 9-(2,6-diethyl-4-methylphenyl)-3-oxaspiro[5.5]undecane-8,10-dione]	100	100	100	100	100	100							pest or weed control at 125 g/ha (Setaria faberi (SETFA) [7]; rate 125 g/ha): 100%; pest or weed control at 125 g/ha (Avena fatua (AVEFA) [8]; rate 125 g/ha): 90%; pest or weed control at 125 g/ha ([9]; rate 125 g/ha): 100%; pest or weed control at 125 g/ha ([10]; rate 125 g/ha): 100%; pest or weed control at 125 g/ha ([11]; rate 125 g/ha): 100%; pest or weed control at 125 g/ha (Lolium perenne (LOLPE) [12]; rate 125 g/ha): 90%
CCc1cc(C)cc(CC)c1C1=C(O)CC(COCOC)CC1=O (stereo not drawn) [Compound T23]	70	70	80	100	100	80	100	80	90	90	100	90	
CCc1cc(C)cc(CC)c1C1=C(O)CC(COCCOC)CC1=O (stereo not drawn) [Compound T24]	100	80	100	100	100	100	100	80	90	90	100	90	
CCc1cc(C)cc(CC)c1C1=C(O)CC(C2(SC)CCC2)CC1=O (stereo not drawn) [Compound T25]	100	100	100	100	100	100	100	100	100	100	80	90	
Cc1cc(C)c(C2=C(O)CC3(CCOCC3)CC2=O)c(C)c1 [Compound T26]	70	20	90	100	100	90	80	10	60	80	100	50	
CCc1cc(C)cc(C)c1C1=C(O)CC2(CCOCC2)CC1=O [Compound T27]	100	100	100	100	100	100	100	90	80	90	100	80	
CCc1cc(C)cc(CC)c1C1=C(O)CC(CC(C)S(=O)(=O)CC)CC1=O (stereo not drawn) [Compound T28, 2-(2,6-diethyl-4-methylphenyl)-5-[2-(ethylsulfonyl)propyl]cyclohexane-1,3-dione]	100	100	70	100	100	100	90	100	90	100	100	80	
